Results as given in PubChem BioAssay AID493118 (Broad Institute, 2011).

What follows are compounds tested on Vibrio harveyi MM32, AI-2 induced luminescence, 5 h (assay: AI-2 driven bioluminescence decrease, LuxPQ pathway – strain MM32, luminescence, dry powder, mechanism study for V. harveyi quorum sensing inhibitors, dose response (AID 493118)).

Compound	AC50 [nM]
CCc1ccc(S(=O)(=O)Nc2ccc(Br)cn2)cc1	1400
O=C1C=C/C(=C/Br)O1	4330
Cc1cccc(NS(=O)(=O)c2ccc(Oc3ccccc3)cc2)n1	898
Cn1cnc(S(=O)(=O)Nc2ccc(OC(F)(F)F)cc2)c1	1950
C=Cn1c(C(=O)O)ccc1-c1ccc(CC)cc1	2140
COc1cc(NC(=O)CN2C(=O)NC(c3ccccc3)(c3ccccc3)C2=O)cc(OC)c1	615
